Like-named read-outs stand apart in the source and are kept apart here.
Legend:
[1] = system: HCV nonstructural protein NS5A or NS3 in 9–13 replicon cells; assay: Quantitative Western blot assay; assay type: cell-based, Hepatitis C virus; conditions: 9–13 replicon cells, NS5A or NS3 Western blot; read-out: Western IC50
Procedure: Alternatively, the inhibitory activity of the compounds can be confirmed using a quantitative Western immunoblot assay utilizing antibodies specific for HCV non-structural proteins, such as NS3, NS4A NS5A and NS5B. In one embodiment of this assay, replicon cells are treated with varying concentrations of test compound to determine the concentration of test compound that yields a 50% reduction in the amount of a non-structural protein produced as compared to a control sample (IC50). A single non-structural protein may be quantified or multiple non-structural proteins may be quantified. Antibodies suitable for carrying out such immunoblot assays are available commercially (e.g., from BIODESIGN International, Saco, Me.).
Certain exemplary compounds of the invention were also tested for their ability to inhibit HCV replication using a quantitative Western blot analysis with antibodies specific for the HCV nonstructural protein NS5A or NS3. Actively dividing 9–13 replicon cells were seeded into Swell plates at a density of 1×10^5 cells/well in a volume of 2 ml/well and incubated at 37° C. and 5% CO2 for 24 hours. Various concentrations of test compounds (in a volume of 10 ul) were added to the wells and the cells incubated for another 48 hours. Protein samples were prepared from the cultured cells, resolved on a SDS-PAGE gel and transferred to a nitrocellulose membrane. The membrane was blocked with 5% non-fat milk in PBS for 1 hour at room temperature. Primary antibody (anti NS5A antibody; BIODESIGN International, Saco, Me. or anti NS3 antibody, Rigel) incubation was performed for 1 hour at room temperature, after which the membrane was washed 3 times (for 15 min per time) with PBST (PBS plus 0.1% Tween 20). Horseradish peroxidase conjugated secondary antibody incubation was performed for 1 hour at room temperature and the membrane was washed 3 times (for 15 min per time) with PBST. The membrane was then soaked in substrate solution (Pierce) and exposed to a film or quantified using an imager. In this assay, the amount of test compound that yielded a 50% reduction in the amount of NS5A or NS3 protein translated as compared to a control sample (IC50) was determined.
In TABLE 1, a value of “+” indicates an IC50 of 10 μM or less in the specified assay; a value of “−” indicates an IC50 of greater than 10 μM in the specified assay.

[2] = system: HCV replicon (5-2 Luc replicon-comprising cells); assay: HCV replicon assay (luciferase); assay type: cell-based, Hepatitis C virus; conditions: 5-2 Luc replicon cells, luciferase readout, read-out: Replicon IC50
In short: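 Readout: IC50 from a 50% drop in luciferase signal (Bright-Glo, luminometer), scored + (≤10 μM) or − (>10 μM). Compounds added at various concentrations to 5-2 Luc replicon cells (Huh7 background), pre-incubated 24 h, then incubated 24 h more before reading.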

[3] = Cytotoxicity assay (Cell Titer Glo); assay type: cell-based; conditions: human; 48 hr with compound, ATP-dependent Cell Titer Glo assay; read-out: IC50 in cytotoxicity assay (number of viable cells)
Procedure: Compounds 67, 167, 169, 13, 1, 145, 29, 119, 63, 31, 39, 103, 123, 121, 97, 129, 79, 111, 85, 89, 109, 127, 131, 95, 47, 57, 69, 165, 161, 163, 3, 137, 15, 141, 41, 53, 33, 113, 93, 105, 77, 91, 81, 83, 35, 27, 65, 7, 135, 51, 139, 51, 49, 143, 5, 149, 11, 37, 21, 45, 61, 75, 23, 125, 73, 43, 171 and 101 were tested in a cytotoxicity assay with liver cells including an HCV replicon (5-2 Luc cells, 9–13 cells or Huh-7 cells). In the assay, cells were seeded onto 96-well plates (approx. 7500 cells/well in a volume of 90 μl) and grown for 24 hr at 37° C. On day 2, various concentrations of test compound (in a volume of 10 μl) were added to the wells and the cells were grown for an additional 48 hr at 37° C. On day 4, an ATP-dependent R-Luciferase assay (Cell Titer Glo assay) was performed to determine the number of viable cells.

With O=C(Nc1cccc(-c2cc(-c3c(Cl)cccc3N3CCOCC3)no2)c1)C(Cl)Cl [Compound 7, 2,2-Dichloro-N-[3-[3-[2-chloro-6-(N-morpholino)phenyl]-5-isoxazolyl]phenyl]Acetamide] the IC50 [1] was less than 10 µM.

For CSc1cccc(F)c1-c1cc(-c2cccc(NC(=O)C(Cl)Cl)c2)on1 [Compound 11, 2,2-Dichloro-N-[3-[3-(2-fluoro-6-thiomethylphenyl)-5-isoxazolyl]phenyl]Acetamide], the IC50 [2] was less than 10 µM and the IC50 [1] was less than 10 µM.

For O=C(Nc1cccc(-c2cc(-c3c(F)cccc3S(=O)(=O)N3CCOCC3)no2)c1)C(Cl)Cl [Compound 21, 2,2-Dichloro-N-[3-[3-[2-fluoro-(6-N-morpholinosulfamoyl)phenyl]-5-isoxazolyl]-phenyl]Acetamide], the IC50 [2] was less than 10 µM and the IC50 [1] was less than 10 µM.

For O=C(Nc1cccc(-c2cc(-c3c(N4CCOCC4)cccc3C(F)(F)F)no2)c1)C(Cl)Cl [Compound 37, 2,2-Dichloro-N-[3-[3-[2-(N-morpholino)-6-trifluoromethylphenyl)-5-isoxazolyl]phenyl]Acetamide], the IC50 [2] was less than 10 µM and the IC50 [1] was less than 10 µM.

For O=C(Nc1cccc(-c2cc(-c3c(Cl)cc(OCCN4CCOCC4)cc3Cl)no2)c1)C(Cl)Cl [Compound 75, 2,2-Dichloro-N-[3-[3-[2,6-dichloro 4-(N-morpholinoethyleneoxy)phenyl]-5-isoxazolyl]-phenyl]Acetamide], the IC50 [2] was greater than 10 µM and the IC50 [1] was less than 10 µM.

Work on CCCCc1cccc(Cl)c1-c1cc(-c2cccc(NC(=O)C(Cl)Cl)c2)on1 [Compound 103, 2,2-Dichloro-N-[3-[3-(2-chloro-6-n-butylphenyl)-5-isoxazolyl]phenyl]Acetamide] yielded an IC50 at 48 h [3] greater than 10 µM and an IC50 ([2]; Hepatitis C virus) of less than 10 µM.

O=C(Nc1cccc(-c2cc(-c3c(C4CCCC4)cccc3C(F)(F)F)no2)c1)C(Cl)Cl [Compound 105, 2,2-Dichloro-N-[3-[3-(2-cyclopentyl-6-trifluoromethylphenyl)-5-isoxazolyl]phenyl]Acetamide] showed an IC50 at 48 h [3] greater than 5 µM and an IC50 ([2]; Hepatitis C virus) of less than 10 µM.

For CN1CCN(c2cccc(C(F)(F)F)c2-c2cc(-c3cccc(NC(=O)C(Cl)Cl)c3)on2)CC1 [Compound 109, 2,2-Dichloro-N-[3-[3-[2-trifluoromethyl-6-(4-methylpiperazino)phenyl]-5-isoxazolyl]-phenyl]Acetamide], the IC50 at 48 h [3] was greater than 10 µM and the IC50 ([2]; Hepatitis C virus) was less than 10 µM.

In the case of O=C(Nc1cccc(-c2cc(-c3c(Cl)cccc3C3CCCCC3)no2)c1)C(Cl)Cl [Compound 111, 2,2-Dichloro-N-[3-[3-(2-chloro-6-cyclohexylphenyl)-5-isoxazolyl]phenyl]Acetamide], the IC50 at 48 h [3] is reported as greater than 10 µM and the IC50 ([2]; Hepatitis C virus) is reported as less than 10 µM.

With O=C(Nc1cccc(-c2cc(-c3ccccc3OC(F)(F)F)no2)c1)C(Cl)Cl [Compound 113, 2,2-Dichloro-N-[3-[3-(2-trifluoromethoxyphenyl)-5-isoxazolyl]phenyl]Acetamide] the IC50 at 48 h [3] was greater than 10 µM and the IC50 ([2]; Hepatitis C virus) was less than 10 µM.

Compound CC(C)Oc1ccccc1-c1cc(-c2cccc(NC(=O)C(Cl)Cl)c2)on1 [Compound 119, 2,2-Dichloro-N-[3-[3-(2-isopropyloxyphenyl)-5-isoxazolyl]phenyl]Acetamide] has an IC50 at 48 h [3] greater than 10 µM and an IC50 ([2]; Hepatitis C virus) of less than 10 µM.

In the case of CC(C)c1cccc(C(C)C)c1-c1cc(-c2cccc(NC(=O)C(Cl)Cl)c2)on1 [Compound 121, 2,2-Dichloro-N-[3-[3-(2,6-diisopropylphenyl)-5-isoxazolyl]phenyl]Acetamide], the IC50 at 48 h [3] is reported as greater than 10 µM and the IC50 ([2]; Hepatitis C virus) is reported as less than 10 µM.

COc1ccc(NC(=O)C(Cl)Cl)cc1-c1cc(-c2c(Cl)cccc2Cl)no1 [Compound 127, 2,2-Dichloro-N-[3-[3-(2,6-dichlorophenyl)-5-isoxazolyl]4-methoxyphenyl]Acetamide] showed an IC50 at 48 h [3] greater than 10 µM and an IC50 ([2]; Hepatitis C virus) of less than 10 µM.

O=C(Nc1cccc(-c2cc(-c3ccccc3C3CCCC3)no2)c1)C(Cl)Cl [Compound 129, 2,2-Dichloro-N-[3-[3-(2-cyclopentylphenyl)-5-isoxazolyl]phenyl]Acetamide] showed an IC50 at 48 h [3] greater than 10 µM and an IC50 ([2]; Hepatitis C virus) of less than 10 µM.

With O=C(Nc1cccc(-c2cc(-c3c(Cl)ccc(Cl)c3Cl)no2)c1)C(Cl)Cl [Compound 137, 2,2-Dichloro-N-[3-[3-(2,3,6-trichlorophenyl)-5-isoxazolyl]phenyl]Acetamide] the IC50 at 48 h [3] was greater than 10 µM and the IC50 ([2]; Hepatitis C virus) was greater than 10 µM.

Work on O=C(O)c1ccc(Cl)c(-c2cc(-c3cccc(NC(=O)C(Cl)Cl)c3)on2)c1Cl [Compound 139, 2,2-Dichloro-N-[3-[3-(3-carboxy-2,6-dichlorophenyl)-5-isoxazolyl]phenyl]Acetamide] yielded an IC50 at 48 h [3] greater than 10 µM and an IC50 ([2]; Hepatitis C virus) greater than 10 µM.

O=C(Nc1cccc(-c2cc(-c3cc(C(F)(F)F)ccc3Cl)no2)c1)C(Cl)Cl [Compound 141, 2,2-Dichloro-N-[3-[3-(2-chloro-5-trifluoromethylphenyl)-5-isoxazolyl]phenyl]Acetamide] gave an IC50 at 48 h [3] greater than 10 µM and an IC50 ([2]; Hepatitis C virus) greater than 10 µM.

With O=C(Nc1cccc(-c2cc(-c3c(Cl)cccc3Cl)no2)c1)C(F)F [Compound 145, 2,2-Difluoro-N-[3-[3-(2,6-dichlorophenyl)-5-isoxazolyl]phenyl]Acetamide] the IC50 at 48 h [3] was greater than 10 µM and the IC50 ([2]; Hepatitis C virus) was greater than 10 µM.

In the case of Cc1ccc(F)c(-c2cc(-c3cccc(NC(=O)C(Cl)Cl)c3)on2)c1F [Compound 149, 2,2-Dichloro-N-[3-[3-(2,6-difluoro-3-methylphenyl)-5-isoxazolyl]phenyl]Acetamide], the IC50 at 48 h [3] is reported as greater than 10 µM and the IC50 ([2]; Hepatitis C virus) is reported as greater than 10 µM.

For O=C(Nc1cccc(-c2cc(-c3ccccc3OCc3ccccc3)no2)c1)C(Cl)Cl [Compound 161, 2,2-Dichloro-N-[3-[3-(2-benzyloxyphenyl)-5-isoxazolyl]phenyl]Acetamide], the IC50 at 48 h [3] was greater than 10 µM and the IC50 ([2]; Hepatitis C virus) was greater than 10 µM.

In the case of Cc1ccc(-c2cc(-c3c(Cl)cccc3Cl)no2)cc1NC(=O)C(Cl)Cl [Compound 165, 2,2-Dichloro-N-[3-[3-(2,6-dichlorophenyl)-5-isoxazolyl]-6-methylphenyl]Acetamide], the IC50 at 48 h [3] is reported as greater than 10 µM and the IC50 ([2]; Hepatitis C virus) is reported as greater than 10 µM.

With Cc1c(NC(=O)C(Cl)Cl)cccc1-c1cc(-c2c(Cl)cccc2Cl)no1 [Compound 167, 2,2-Dichloro-N-[3-[3-(2,6-dichlorophenyl)-5-isoxazolyl]-2-methylphenyl]Acetamide] the IC50 at 48 h [3] was greater than 10 µM and the IC50 ([2]; Hepatitis C virus) was greater than 10 µM.

In the case of Cc1ccc(C(=O)N2CCN(c3cccc(Cl)c3-c3cc(-c4cccc(NC(=O)C(Cl)Cl)c4)on3)CC2)cc1 [Compound 665], the IC50 [2] is reported as less than 10 µM and the IC50 [1] is reported as less than 10 µM.

CC(C)(C)OC(=O)NC1CCN(c2cccc(Cl)c2-c2cc(-c3cccc(NC(=O)C(Cl)Cl)c3)on2)C1 (stereo not shown) [Compound 671] gave an IC50 [2] of less than 10 µM and an IC50 [1] of less than 10 µM.

CC(C)(C)OC(=O)NC1CCN(c2cccc(Cl)c2-c2cc(-c3cccc(NC(=O)C(Cl)Cl)c3)on2)C1 (stereo not shown) [Compound 672] gave an IC50 [2] of less than 10 µM and an IC50 [1] of less than 10 µM.

NC1CCN(c2cccc(Cl)c2-c2cc(-c3cccc(NC(=O)C(Cl)Cl)c3)on2)C1 (stereo not shown) [Compound 673] showed an IC50 [1] of less than 10 µM.

Compound NC1CCN(c2cccc(Cl)c2-c2cc(-c3cccc(NC(=O)C(Cl)Cl)c3)on2)C1 (stereo not shown) [Compound 674] has an IC50 [2] of less than 10 µM and an IC50 [1] of less than 10 µM.

In the case of CN(C)C(=O)NC1CCN(c2cccc(Cl)c2-c2cc(-c3cccc(NC(=O)C(Cl)Cl)c3)on2)C1 (stereo not shown) [Compound 675], the IC50 [1] is reported as less than 10 µM.

Work on CS(=O)(=O)NC1CCN(c2cccc(Cl)c2-c2cc(-c3cccc(NC(=O)C(Cl)Cl)c3)on2)C1 (stereo not shown) [Compound 682] yielded an IC50 [1] of less than 10 µM.

Work on O=C(Nc1cccc(-c2cc(-c3c(Cl)cccc3C(=O)N3CCOCC3)no2)c1)C(Cl)Cl [Compound 689] yielded an IC50 [1] of less than 10 µM.
